Experiments:
lung cancer A549 cells = assay: MTT antiproliferation assay, A549; assay type: cell-based, human; conditions: 48 h, means ± SD, n = 3
From the text: (§1) The target hybrids A1–A15 were screened for their antiproliferation activities against five human cancer cell lines (lung cancer A549 cells, breast cancer MCF-7 and MDA-MB-231 cells, colon cancer HCT116 cells and ovarian cancer SK-OV-3 cells) in vitro by the standard MTT method, and 5-fluorouracil (5-FU) and ART were coassayed as controls. […] Therefore, the most promising hybrid, A8, was chosen for further exploration of the preliminary mechanism of MCF-7 cell antiproliferation.
(§2) Cytotoxicity of test compounds against five different tumor cell lines were evaluated using an MTT assay in vitro. Cells were seeded into 96-well plates at a density of 5 × 10^4 cells per well and stabilized at 37 °C with 5% CO2 for 24 h. Compounds A1–A15, ART and 5-FU were added to each well at various concentrations and then the cells were incubated for 48 h. The MTT solution (100 μL 0.5 mg/mL^−1) was added to each well, and the cells were incubated for another 4 h. Then, 150 μL DMSO was added to each well and the absorbance of samples was measured at 492 nm. The IC50 values were calculated according to Logit method after getting the inhibitory rate.

[1] = system: breast cancer MCF-7 cells; assay: MTT antiproliferation assay, MCF-7; assay type: cell-based, human; conditions: 48 h, means ± SD, n = 3
From the text: as §1, §2

[2] = system: colon cancer HCT116 cells; assay: MTT antiproliferation assay, HCT116; assay type: cell-based, human; conditions: 48 h, means ± SD, n = 3
From the text: as §1, §2

[3] = system: ovarian cancer SK-OV-3 cells; assay: MTT antiproliferation assay, SK-OV-3; assay type: cell-based, human; conditions: 48 h, means ± SD, n = 3
From the text: as §1, §2

Bcl-2 = assay: Western blotting, Bcl-2 expression; assay type: cell-based, human; conditions: MCF-7, 0, 2.5, 5 and 10 μM, 48 h, GAPDH internal control
Experimental: (§3) Based on the JC-1 staining results, we further analyzed the expression of proteins related to apoptosis using a Western blotting assay with GAPDH as an internal control. […] Then, an excess of cytochrome C can enhance caspase-3 activation to stimulate apoptosis.
(§4) MCF-7 cells were seeded at a density of 4 × 10^5 cells per well and treated with various concentrations of compound A8 (0, 2.5, 5 and 10 μM) for 48 h. After this, cells were collected and washed twice with ice-cold DPBS. The pellets were resuspended in a total protein extraction buffer (20 mM HEPES, 350 mM NaCl, 20% glycerol, 1% NP-40, 1 mM MgCl2, 0.5 mM EDTA, 0.1 mM EGTA, 0.1 mM DTT, 0.1 mM PMSF) containing a protease inhibitor cocktail and incubated on ice for 30 min with intermittent mixing. The protein concentration was measured using the Bradford reagent (Bio-Rad Laboratories Inc., Hercules, CA, USA). An equal amount (20 μg) of protein was loaded on 10% polyacrylamide gels and transferred to a nitrocellulose membrane. After blocking with 5% skimmed milk, the membrane was incubated at 4 °C overnight with specific primary antibodies. The membrane was washed and incubated at room temperature for 1 h with secondary antibodies conjugated with horseradish peroxidase (HRP). Finally, the immunoblot was developed for visualization using a chemiluminescence kit. […]

Bax = assay: Western blotting, Bax expression; assay type: cell-based, human; conditions: MCF-7, 0, 2.5, 5 and 10 μM, 48 h, GAPDH internal control
Experimental: as §3, §4

MCF-7 cells [4] = assay: Intracellular ROS generation (DCFH-DA, flow cytometry); assay type: cell-based, human; conditions: MCF-7, 0, 2.5, 5 and 10 μM, 48 h
Experimental: First, we detected ROS levels using DFCH-DA.
ROS production was detected by using the peroxide-sensitive fluorescent probe DCFH-DA. After treatment with different concentrations of A8 for 48 h, the cells were incubated with 10 μg/mL DCFH-DA at 37 °C for 20 min. Then, cells were harvested. Samples were analyzed by flow cytometry (FACS Calibur, Becton-Dickinson, East Rutherford, NJ, USA).

MCF-7 cells [5] = assay: Lipid peroxidation (MDA) detection; assay type: cell-based, human; conditions: MCF-7
From the text: We also determined the effect of A8 on the expression of GSH and MDA (lipid peroxidation).
Lipid peroxidation assay kit (Beyotime, Shanghai, China) was used to detect malonaldehyde (MDA), together with GSH level assay, present in samples, as per the manufacturer’s instruction with slight modifications.

GPX4 = assay: Western blotting, GPX4 expression; assay type: cell-based, human; conditions: MCF-7, 0, 2.5, 5 and 10 μM, 48 h
Experimental: We examined the effect of A8 on the expression of GPX4 as well, which is vital in preventing ferroptosis. […] Thus, we concluded that A8 induced the accumulation of ROS and lipid peroxidation and suppressed GSH levels and the expression of GPX4, thereby leading to the induction of ferroptosis.
as §4

CYP1A2 = molecular target: T1, CYP1A2 (Homo sapiens, UniProt P05177); assay: CYPs inhibition assay, CYP1A2; assay type: in vitro ADME
T1 construct: from tissue; host or cells: human liver microsomes
T1 sequence (P05177 1-516): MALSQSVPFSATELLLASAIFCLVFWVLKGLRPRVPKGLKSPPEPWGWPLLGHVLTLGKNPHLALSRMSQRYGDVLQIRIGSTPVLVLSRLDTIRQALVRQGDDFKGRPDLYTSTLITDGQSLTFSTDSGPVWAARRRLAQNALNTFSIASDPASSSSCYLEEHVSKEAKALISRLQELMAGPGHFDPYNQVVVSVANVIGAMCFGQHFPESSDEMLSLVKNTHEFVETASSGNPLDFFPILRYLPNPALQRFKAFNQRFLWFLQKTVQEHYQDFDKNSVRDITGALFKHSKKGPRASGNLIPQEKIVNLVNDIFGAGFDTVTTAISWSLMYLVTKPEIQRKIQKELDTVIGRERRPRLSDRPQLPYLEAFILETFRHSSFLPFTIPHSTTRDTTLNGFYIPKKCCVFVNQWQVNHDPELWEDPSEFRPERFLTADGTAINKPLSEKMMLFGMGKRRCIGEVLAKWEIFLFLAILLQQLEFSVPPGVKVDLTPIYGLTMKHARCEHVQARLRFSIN
Experimental: (§5) Finally, we evaluated the interaction between the hybrid A8 and five major metabolic enzymes (CYP1A2, CYP2C9, CYP2C19, CYP2D6 and CYP3A4) in the human body. […] It is also one of the directions for our further transformation and optimization.
(§6) Cytochrome P450 inhibition was evaluated in human liver microsomes (0.253 mg/mL) using five […] (CYP1A2, α-Naphthoflavone; CYP2C9, Sulfaphenazole; CYP2C19, Benzylnirvanol; CYP2D6, Quinidine; and CYP3A4, Ketoconazole.) in the presence of compound A8 (10 μM). After preincubation for 10 min at 37 °C, an NADPH-regenerating system was added. After the mixed system was incubated for 15 min at 37 °C, the reaction was stopped by adding 400 μL of cold stop solution (200 ng/mL tolbutamide and 200 ng/mL labetalol in acetonitrile). Then, the mixture was centrifuged, and the supernatant was analyzed by LC-MS/MS.

CYP3A4 = molecular target: T2, CYP3A4 (Homo sapiens, UniProt P08684); assay: CYPs inhibition assay, CYP3A4; assay type: in vitro ADME
T2 construct: from tissue; host or cells: human liver microsomes
Experimental: as §5, §6

T2 sequence (P08684 whole entry): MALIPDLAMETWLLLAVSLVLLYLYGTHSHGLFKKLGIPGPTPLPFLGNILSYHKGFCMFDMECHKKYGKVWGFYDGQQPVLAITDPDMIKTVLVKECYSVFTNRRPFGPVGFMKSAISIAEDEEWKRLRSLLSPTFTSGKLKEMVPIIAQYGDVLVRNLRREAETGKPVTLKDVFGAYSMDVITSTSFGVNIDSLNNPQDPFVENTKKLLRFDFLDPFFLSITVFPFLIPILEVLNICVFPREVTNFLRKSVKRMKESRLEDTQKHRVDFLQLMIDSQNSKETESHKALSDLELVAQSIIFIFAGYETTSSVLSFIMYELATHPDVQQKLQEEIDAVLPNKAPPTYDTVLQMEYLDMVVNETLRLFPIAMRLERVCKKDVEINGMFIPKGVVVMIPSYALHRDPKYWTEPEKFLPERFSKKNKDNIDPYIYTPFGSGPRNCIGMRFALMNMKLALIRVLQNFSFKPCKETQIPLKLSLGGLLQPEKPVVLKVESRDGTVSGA

CC1CCC2C(C)C(OC(=O)CCC(=O)NCc3nnc(Nc4ccc(F)cc4F)o3)OC3OC4(C)CCC1C32OO4 (stereo not shown) [A8] gave an IC50 (lung cancer A549 cells) of 7.7 ± 0.36 µM, an IC50 [1] of 4.07 ± 0.05 µM and an IC50 [2] of 9.71 ± 0.37 µM. The IC50 [3] was 7.15 ± 0.95 µM, the “expression of Bcl-2 (in words)” value (Bcl-2) was “significantly downregulated” and the “expression of Bax (in words)” value (Bax) was “upregulated”. The “ROS fluorescence intensity (in words)” value (MCF-7 cells [4]) was “increased significantly with increasing drug concentration”, the “MDA level (in words)” value (MCF-7 cells [5]) was “increased at higher concentrations” and the “GPX4 expression (in words)” value (GPX4) was “dose-dependent inhibition of GPX4 expression”. For the same compound, the “inhibitory effect on CYP1A2 (in words)” value (CYP1A2; 10 μM) was “moderate inhibitory effect”, the “Inhibition at 10 μM (%) CYP1A2” value (CYP1A2; human liver microsomes) was 57.1% and the “inhibitory effect on CYP3A4 (in words)” value (CYP3A4; 10 μM) was “moderate inhibitory effect”. For the same compound, the “Inhibition at 10 μM (%) CYP3A4” value (CYP3A4; human liver microsomes) was 55.8%.

From PMC9779727, “Identification of Novel Artemisinin Hybrids Induce Apoptosis and Ferroptosis in MCF-7 Cells” (International Journal of Molecular Sciences, 2022)
